Data as given in US9428507B2, “Compounds for the treatment of malaria” (The Broad Institute, Inc., priority 2013, dated 2016).

System: Dd2 strain of P. falciparum
Assay: Activity against the Dd2 strain of P. falciparum (SYBR Green I, 72-h incubation)
Assay type: cell-based
Conditions: Plasmodium falciparum, DD2, 72 h, read-out: EC^50 Dd2
Method: The Dd2 strain of P. falciparum was cultured in complete medium (RPMI with L-glutamine, 4.3% heat-inactivated O-positive human serum, 2.08 mg/ml albumax, 0.013 mg/ml hypoxanthine, 1.17 mg/ml glucose, 0.18% NaHCO3, 0.031 M Hepes, 2.60 mM NaOH, and 0.043 mg/ml gentamicin) until the parasitemia reached 3-8%. Parasitemia was determined by checking at least 500 red blood cells from a Giemsa-stained blood smear. The Dd2 cultures along with tested O-positive red blood cells are centrifuged at room temperature at 2,000 rpm for 5 min using an Eppendorf centrifuge 581 OR with an A-4-81 rotor. The medium was aspirated off. For the compound screening, a parasite dilution at a 1% parasitemia and 1.0% hematocrit was created with screening medium (RPMI with L-glutamine, 4.16 mg/ml albumax II, 0.013 mg/ml hypoxanthine, 1.73 mg/ml glucose, 0.18% NaHCO3, 0.031M Hepes, 2.60 mM NaOH, and 0.043 mg/ml gentamicin). The suspension was gassed with 93% nitrogen, 4% carbon dioxide, and 3% oxygen and placed at 37° C. until needed. Using a liquid dispenser, 20 μl of screening medium was dispensed into 384-well, black, clear-bottom plates. With a PinTool, 100 nl of compounds dissolved in DMSO was transferred into the assay plates along with control compound (mefloquine). Next, 30 μl of the parasite suspension in screening medium was then dispensed into the assay plates such that the final parasitemia was 1%, and the final hematocrit was 1.0%. Final concentration of DMSO was 0.125%. Mefloquine at a final concentration of 20 μM and DMSO at a final concentration of 0.125% were used within the assay plates to serve as background and baseline controls, respectively. The assay plates were transferred to incubators (93% nitrogen, 4% carbon dioxide, and 3% oxygen during the 72-h incubation at 37° C.). Ten microliters of detection reagent consisting of 1 OX SYBR Green I (Invitrogen; supplied in 10,000× concentration) in lysis buffer (20 mM Tris-HCl, 5 mM EDTA, 0.16% Saponin wt/vol, 1.6% Triton X vol/vol) was dispensed into the assay plates. For optimal staining, the assay plates were left at room temperature for 24 h in the dark. The assay plates were read by using an Envision (PerkinElmer) reader, with 505 dichroic mirrors with 485-nm excitation and 530-nm emission settings, and the plate reads were from the bottom.

EC50 [nM]	Compound
4610 to 5790	CCN1CC2(CCN(C(=O)Nc3ccccc3F)CC2)c2c([nH]c3cc(OC)ccc23)[C@@H]1CO [Compound 60, (R)-2′-ethyl-N-(2-fluorophenyl)-1′-(hydroxymethyl)-7′-methoxy-1′,2′,3′,9′-tetrahydrospiro [piperidine-4,4′-pyrido[3,4-b]indole]-1-carboxamide]
120 to 303	COc1ccc2c3c([nH]c2c1)C(C)(C)N(C(C)=O)CC31CCN(C(=O)Nc2ccccc2F)CC1 [Compound 2, 2′-acetyl-N-(2-fluorophenyl)-7′ -methoxy-1′,1′-dimethyl-1′,2′,3′,9′-tetrahydrospiro [piperidine-4,4′-pyrido[3,4-b]indole]-1-carboxamide]
3770	COc1ccc2c3c([nH]c2c1)[C@H](C)N(C(C)=O)CC31CCN(C(=O)OC(C)(C)C)CC1 [Compound 34, (S)-tert-butyl 2′-acetyl-7′-methoxy-1′-methyl-1′,2′,3′,9′-tetrahydrospiro[piperidine-4,4′-pyrido[3,4-b]indole]-1-carboxylate]
1220	COc1ccc2c3c(n(C)c2c1)[C@@H](CO)N(C(=O)c1ccc(F)cc1)CC31CN(C(=O)Nc2ccc(F)cc2)C1 [Compound 108, (S)-2′-(4-fluorobenzoyl)-N-(4-fluorophenyl)-1′-(hydroxymethyl)-7′-methoxy-9′-methyl-1′,2′,3′,9′-tetrahydrospiro[azetidine-3,4′-pyrido[3,4-b]indole]-1-carboxamide]
3780 to 4120	COc1ccc2c3c([nH]c2c1)[C@H](CO)N(C)CC31CCN(C(=O)Nc2ccccc2F)CC1 [Compound 61, (R)-N-(2-fluorophenyl)-1′-(hydroxymethyl)-7′-methoxy-2′-methyl-1′,2′,3′,9′-tetrahydrospiro[piperidine-4,4′-pyrido[3,4-b]indole]-1-carboxamide]
750	COc1ccc2c3c([nH]c2c1)[C@H](CO)N(C(=O)Nc1ccc(F)cc1)CC31CCN(S(=O)(=O)c2cccc(F)c2)CC1 [Compound 128, (R)-N-(4-fluorophenyl)-1-((3-fluorophenyl)sulfonyl)-1′-(hydroxymethyl)-7′-methoxy-3′,9′-dihydrospiro [piperidine-4,4′-pyrido[3,4-b]indole]-2′(1′H)-carboxamide]
127 to 162	COc1ccc2c3c([nH]c2c1)[C@H](CO)N(C(C)=O)CC31CCN(C(=O)Nc2cccc(Cl)c2)CC1 [Compound 13, (R)-2′-acetyl-N-(3-chlorophenyl)-1′-(hydroxymethyl)-7′-methoxy-1′,2′,3′,9′-tetrahydrospiro [piperidine-4,4′-pyrido[3,4-b]indole]-1-carboxamide]
195	COc1ccc2c3c(n(C)c2c1)[C@@H](CO)N(C(=O)C1CC1)CC31CN(C(=O)Nc2cccc(F)c2)C1 [Compound 93, (S)-2′-(cyclopropanecarbonyl)-N-(3-fluorophenyl)-1′-(hydroxymethyl)-7′-methoxy-9′-methyl-1′,2′,3′,9′-tetrahydrospiro [azetidine-3,4′-pyrido[3,4-b]indole]-1-carboxamide]
2390 to 2920	CCCN1CC2(CCN(C(=O)Nc3ccccc3F)CC2)c2c([nH]c3cc(OC)ccc23)[C@@H]1CO [Compound 49, (R)-N-(2-fluorophenyl)-1′-(hydroxymethyl)-7′-methoxy-2′-propyl-1′,2′,3′,9′-tetrahydrospiro[piperidine-4,4′-pyrido[3,4-b]indole]-1-carboxamide]
1650	CCCC(=O)N1CC2(C1)CN(S(=O)(=O)c1ccc(C)cc1)[C@@H](CO)c1[nH]c3cc(OC)ccc3c12 [Compound 120, (R)-1-(1′-(hydroxymethyl)-7′-methoxy-2′-tosyl-1′,2′,3′,9′-tetrahydrospiro[azetidine-3,4′-pyrido[3,4-b]indol]-1-yl)butan-1-one]

Compound	EC50 [nM]
COc1ccc2c3c(n(C)c2c1)[C@@H](CO)NCC31CCN(Cc2ccc(-c3ccccn3)cc2)CC1 [Compound 130, (S)-(7′-methoxy-9′-methyl-1-(4-(pyridin-2-yl)benzyl)-1′,2′,3′,9′-tetrahydrospiro[piperidine-4,4′-pyrido[3,4-b]indol]-1′-yl)methanol]	439
COc1ccc2c3c([nH]c2c1)[C@@H](CO)N(C(=O)CN(C)C)CC31CCN(CC2CCCCC2)CC1 [Compound 121, (S)-1-(1-(cyclohexylmethyl)-1′-(hydroxymethyl)-7′-methoxyspiro [piperidine-4,4′-pyrido[3,4-b]indol]-2′(1′H,3′H,9′H)-yl)-2-(dimethylamino) ethanone]	360
COc1ccc2c3c(n(C)c2c1)[C@@H](CO)N(CC1CCCCC1)CC31CCN(Cc2nccs2)CC1 [Compound 109, (S)-(2′-(cyclohexylmethyl)-7′-methoxy-9′-methyl-1-(thiazol-2-ylmethyl)-1′,2′,3′,9′-tetrahydrospiro [piperidine-4,4′-pyrido[3,4-b]indol]-1′-yl)methanol]	1030
COc1ccc2c3c(n(C)c2c1)[C@H](CO)N(C(=O)Nc1ccc(F)cc1)CC31CCN(Cc2cccnc2)CC1 [Compound 117, (R)-N-(4-fluorophenyl)-1′-(hydroxymethyl)-7′-methoxy-9′-methyl-1-(pyridin-3-ylmethyl)-3′,9′-dihydrospiro[piperidine-4,4′-pyrido[3,4-b]indole]-2′(1′H)-carboxamide]	1610
COc1ccc2c3c([nH]c2c1)[C@H](CO[Si](C)(C)C(C)(C)C)NCC31CCN(C(=O)Nc2ccccc2F)CC1 [Compound 40, (R)-1′-(((tert-butyldimethylsilyl)oxy)methyl)-N-(2-fluorophenyl)-7′-methoxy-1′,2′,3′,9′-tetrahydrospiro[piperidine-4,4′-pyrido[3,4-b]indole]-1-carboxamide]	1220
COc1ccc2c3c([nH]c2c1)[C@H](CO[Si](C)(C)C(C)(C)C)N(C(C)=O)CC31CCN(Cc2ccccc2F)CC1 [Compound 38, (R)-1-(1′-(((tert-butyldimethylsilyl)oxy)methyl)-1-(2-fluorobenzyl)-7′-methoxyspiro[piperidine-4,4′-pyrido[3,4-b]indol]-2′(1′H,3′H,9′H)-yl)ethanone]	809
COc1ccc2c3c(n(C)c2c1)[C@H](CO)N(Cc1ccc(Cl)cc1)CC31CCN(CC2CC2)CC1 [Compound 135, (R)-(2′-(4-chlorobenzyl)-1-(cyclopropylmethyl)-7′-methoxy-9′-methyl-1′,2′,3′,9′-tetrahydrospiro [piperidine-4,4′-pyrido[3,4-b]indol]-1′-yl) methanol]	2230
COc1ccc2c3c([nH]c2c1)[C@H](CO[Si](C)(C)C(C)(C)C)N(C(=O)C(C)(C)C)CC31CCN(C(=O)Nc2ccccc2F)CC1 [Compound 22, (R)-1′-(((tert-butyldimethylsilyl)oxy)methyl)-N-(2-fluorophenyl)-7′-methoxy-2′-pivaloyl-l′,2′,3′,9′-tetrahydrospiro[piperidine-4,4′-pyrido[3,4-b]indole]-1-carboxamide]	430
COc1ccc2c3c([nH]c2c1)[C@H](CO[Si](C)(C)C(C)(C)C)N(C(C)=O)CC31CCN(C(=O)OC(C)(C)C)CC1 [Compound 24, (R)-tert-butyl 2′-acety1-1′-(((tert-butyldimethylsilyl)oxy)methyl)-7′-methoxy-1′,2′,3′,9′-tetrahydrospiro [piperidine-4,4′-pyrido[3,4-b]indole]-1-carboxylate]	1240

Same assay, conditions: read-out: EC^50 Dd2

Compound	EC50 [nM]
Mixture of (1R,3′R) and (1R,3′S)-2-acetyl-1- (((tert-butyldimethylsilyl) oxy)methyl)-N- (2-fluorophenyl)-7-methoxy- 1,2,3,9-tetrahydrospiro [pyrido[3,4-b]indole- 4,3′-pyrrolidine]-1′- carboxamide compound with (1R,3′S)- 2-acetyl-1- (((tert-butyldimethylsilyl) oxy)methyl)-N-(2- fluorophenyl)-7-methoxy- 1,2,3,9- tetrahydrospiro[pyrido [3,4-b]indole-4-3′- pyrrolidine]-1′- carboxamide (1:1) [Compound 75]	3210
Mixture of (1R,3′R) and (1R,3′S)-tert-butyl 2-acetyl-1-(((tert- butyldimethylsilyl)oxy) methyl)-7-methoxy- 1,2,3,9- tetrahydrospiro [pyrido[3,4-b]indole- 4,3′-pyrrolidine]-1′- carboxylate compound with (1R,3′S)-tert-butyl 2-acetyl-1- (((tert-butyldimethylsilyl) oxy)methyl)-7- methyoxy-1,2,3,9- tetrahydrospiro[pyrido [3,4-b]indole-4,3′- pyrrolidine]-1′- carboxylate (1:1) [Compound 76]	1470
